Experimental data as given in paper PMC10218498, “Exploring BenzylethoxyAryl Urea Scaffolds for Multitarget Immunomodulation Therapies” (International Journal of Molecular Sciences, 2023).
Like-named read-outs stand apart in the source and are kept apart here.

How the values were obtained:
[1] = system: HT-29 cells; assay: Cancer cell viability in monoculture and co-cultures with THP-1 by flow cytometry; format: cell-based, human; details: for morphological changes of HT-29 cells: 48 h co-culture with THP-1 at (1:5); for viability at 20 µM: Homo sapiens
Protocol: We also studied the effect of the selected compounds on tumor cell proliferation in the presence of human monocytic leukemia cell line THP-1. This assay was carried out using HT-29 as the cancer cell line and different proportions of immune cells. Standard proportions for this assay were 1:5 cancer/immune cells. Additionally, we also carried out this assay using a 2:1 proportion of cancer cells as regards immune THP-1 cells. Assays were performed after 24 and 48 h of treatment, using 20 μM doses of selected compounds and BMS-8 as the reference compound.
First, to study the effect of the compounds on the cell viability in monoculture, 10^5 of cancer cell line per well were seeded and incubated for 24 h; then, the corresponding compound at 20 μM or DMSO for the positive control were added. After 24 h of incubation, cancer cells were collected with trypsin and fixed with 4% in PBS paraformaldehyde and counted by flow cytometry.
On the other hand, to study the effect of the compounds on the cell viability in co-culture with THP-1 cells, 10^5 or 2 × 10^5 of the HT-29 cells line per well were seeded and incubated for 24 h, then the medium was changed by one cell culture medium supplemented with IFN-γ (10 ng/mL; human, Invitrogen®, Waltham, MA, USA) and containing 5 × 10^5 or 105, respectively, of THP-1 per well and the corresponding compound at 20 μM or DMSO for the positive control. After 24 h/48 h of incubation, supernatants were collected to determine THP-1 living cells. Additionally, stain cancer cells were collected with trypsin. Both types of suspension cells were fixed with 4% in PBS paraformaldehyde and counted by flow cytometry.

[2] = system: MCF-7 (Human breast cancer adenocarcinoma); assay: MTT cell proliferation assay, MCF-7; format: cell-based; details: for IC50: Homo sapiens; for SI (MCF-7): selectivity index vs HEK-293
Protocol: The 3-(4,5-dimethylthiazol-2-yl)-2,5-diphenyltetrazolium bromide (MTT; Sigma Chemical Co.) dye reduction assay in 96-well microplates was used. […] After that, the supernatant was discarded and replaced by 100 µL of DMSO to dissolve formazan crystals. The absorbance was then read at 550 nm by spectrophotometry. For all concentrations of compound, cell viability was expressed as the percentage of the ratio between the mean absorbance of treated cells and the mean absorbance of untreated cells. Three independent experiments were performed, and the IC50 values (i.e., concentration half inhibiting cell proliferation) were graphically determined using GraphPad Prism 4 software.

[3] = biological target: VEGFR-2 (Homo sapiens, UniProt P35968); assay: VEGFR-2 relative quantification by flow cytometry in A-549; format: cell-based; parameters: Both membrane and total PD-L1 and VEGFR-2 were relatively determined using DMSO-treated cells as a negative control; endogenous in cells; host or cells: A-549; details: A-549, 20 µM, 24 h, relative to DMSO control = 100
Chain of VEGFR-2 (P35968 20-1356): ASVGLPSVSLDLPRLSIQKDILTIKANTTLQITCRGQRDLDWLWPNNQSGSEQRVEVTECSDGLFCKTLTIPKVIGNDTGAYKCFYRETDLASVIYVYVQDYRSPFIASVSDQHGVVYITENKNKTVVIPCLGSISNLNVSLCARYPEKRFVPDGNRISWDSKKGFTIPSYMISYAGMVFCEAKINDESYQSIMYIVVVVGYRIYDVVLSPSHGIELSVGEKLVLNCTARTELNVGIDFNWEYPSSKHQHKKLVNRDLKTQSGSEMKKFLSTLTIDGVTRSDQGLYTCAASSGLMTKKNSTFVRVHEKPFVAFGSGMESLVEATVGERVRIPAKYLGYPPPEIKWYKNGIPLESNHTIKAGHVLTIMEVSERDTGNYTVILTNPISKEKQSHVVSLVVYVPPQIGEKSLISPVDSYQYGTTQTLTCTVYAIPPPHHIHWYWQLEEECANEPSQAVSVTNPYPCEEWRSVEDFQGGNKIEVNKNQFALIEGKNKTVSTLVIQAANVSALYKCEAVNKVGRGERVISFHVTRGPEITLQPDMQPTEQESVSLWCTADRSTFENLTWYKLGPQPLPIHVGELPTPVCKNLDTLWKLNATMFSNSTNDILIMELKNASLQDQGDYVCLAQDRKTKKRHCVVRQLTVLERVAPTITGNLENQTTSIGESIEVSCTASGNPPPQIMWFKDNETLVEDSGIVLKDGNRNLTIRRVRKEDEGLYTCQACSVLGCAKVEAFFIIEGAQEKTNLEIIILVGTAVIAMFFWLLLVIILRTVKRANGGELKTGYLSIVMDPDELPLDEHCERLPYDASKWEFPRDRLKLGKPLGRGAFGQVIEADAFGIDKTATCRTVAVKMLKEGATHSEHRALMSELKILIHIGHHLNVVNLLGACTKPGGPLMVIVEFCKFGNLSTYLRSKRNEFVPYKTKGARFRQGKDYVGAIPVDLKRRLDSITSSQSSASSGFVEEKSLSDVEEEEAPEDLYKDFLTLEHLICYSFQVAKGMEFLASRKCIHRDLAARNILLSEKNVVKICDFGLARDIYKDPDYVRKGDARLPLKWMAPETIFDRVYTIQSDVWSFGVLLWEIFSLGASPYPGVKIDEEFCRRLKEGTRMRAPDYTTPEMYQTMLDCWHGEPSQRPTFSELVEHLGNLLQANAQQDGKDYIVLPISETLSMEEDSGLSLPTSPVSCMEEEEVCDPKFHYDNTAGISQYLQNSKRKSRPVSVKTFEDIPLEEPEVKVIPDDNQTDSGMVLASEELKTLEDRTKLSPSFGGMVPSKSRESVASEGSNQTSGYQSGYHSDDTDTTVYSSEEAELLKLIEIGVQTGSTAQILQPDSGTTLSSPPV
Protocol: For these assays, cells were incubated for 24 h in the presence of the corresponding compounds at 20 µM concentration.
To study the effect of the compounds on every biological target in cancer cell lines, the compounds were used at 20 µM dose.
For the assay, 10^5 cells per well were incubated for 24 h with the corresponding dose of the tested compound in a total volume of 500 μL of their growth media.
On the one hand, to detect total PD-L1 and VEGFR-2, after the cell treatments, they were collected and fixed with 4% in PBS paraformaldehyde.
On the other hand, to detect membrane PD-L1 and VEGFR-2, the process was the same, avoiding the treatment with 0.5% in PBS TritonTM X-100 step.

[4] = system: LCK; assay: Immunoblotting of OT-1 CTL signaling proteins: LCK; format: cell-based, mice; details: OT-1, 20 μM, 24 h
Description: (§1) We next studied the effect of our compounds on the signaling cascade downstream of the TCR. […] However, both the expression and phosphorylation of LCK were increased in response to all compounds. The effects on ZAP70 and LAT were more complex, with opposing effects on total protein expression versus phosphorylation. Thus, all compounds modulated signaling downstream of the TCR in a manner that is likely to impact T-cell activation and activity.
(§2) CD8+ cells were obtained from the inguinal, axillary, brachial, and mesenteric lymph nodes previously collected from OT-1 mice. Lymph node cells were isolated by mashing through a […] cell strainer. Cells were resuspended in IMDM cell media at a concentration of 0.3 million cells/mL. N4 ovalbumin peptide was added at a concentration of 10 nM, and cells were incubated for 48 h at 5% CO2, 37 °C. On day 2 from recollection, cells were pelleted at 1300 rpm for 5 min and washed with PBS to remove N4 peptide. The cell pellet was resuspended in fresh IMDM media in a new flask in a 0.3 million cells/mL and supplemented with IL-2 at 20 ng/mL. After incubation for a further 48 h (day 4), cells were re-seeded in fresh IMDM media at a concentration of 0.3 million cells/mL supplemented with IL-2 at 20 ng/mL. Cells were cultured for a further 48 h prior to use on day 6 in functional assays.
(§3) To study the effect of the compounds in the signaling pathway of CTLs, the compound was incubated for 24 h at 20 μM. After this time, cells were collected and washed twice in PBS and lysed in radioimmunoprecipitation assay (RIPA) lysis buffer (50 mM tris-HCl at pH 7.4, 150 mM sodium chloride, 5 mM EGTA, 0.1% SDS, 1% NP-40, and 1% deoxycholate) supplemented with a protease and phosphatase inhibitor cocktail (mini complete ULTRA Protease tablet and phosSTOP tablet from Roche, Basel, Switzerland). Lysates were clarified by high-speed centrifugation (17,000 rpm for 15 min at 4 °C). Protein concentration was measured using a Micro BCA Protein Assay (Thermo Scientific, Waltham, MA, USA), and 10 μg to 30 μg of total protein were supplemented with 2X SDS sample buffer [tris (pH 6.8), 20% glycerol, 5% SDS, b-mercaptoethanol, and bromophenol blue) and boiled at 95 °C for 5 min. […] Bound Ab was detected by incubation with anti-rabbit and anti-mouse horseradish peroxidase secondary Ab (Cell Signaling Technology) and visualized using the Bio-Rad ChemiDoc MP Imaging System.

[5] = system: LAT; assay: Immunoblotting of OT-1 CTL signaling proteins: LAT; format: cell-based, mice; details: OT-1, 20 μM, 24 h
Description: as §1, §2, §3

[6] = HT-29 monoculture, 20 μM, read-out: cancer cell viability (%), Monocult. HT-29
[7] = co-culture 1:5 HT-29/THP-1, 20 μM, 24 h, read-out: cancer cell viability (%), 1:5 HT-29/THP-1, 24 h
[8] = co-culture 1:5 HT-29/THP-1, 20 μM, 48 h, read-out: cancer cell viability (%), 1:5 HT-29/THP-1, 48 h
[9] = co-culture 2:1 HT-29/THP-1, 20 μM, 24 h, read-out: cancer cell viability (%), 2:1 HT-29/THP-1, 24 h
[10] = co-culture 2:1 HT-29/THP-1, 20 μM, 48 h, read-out: cancer cell viability (%), 2:1 HT-29/THP-1, 48 h
[11] = MCF7, MTT, read-out: IC50 (μM) MCF-7
[12] = co-culture (1:5) HT-29/THP-1, 24 h, 20 μM
[13] = co-culture (2:1) HT-29/THP-1, 24 h, 20 μM

Row | Structure (SMILES) | IC50 [2, 11] | Total VEGFR-2 (%) [3] | morphological changes of HT-29 cells ([1]; 20 μM) | viability at 20 µM [1, 6] | viability at 20 µM [1, 7] | viability at 20 µM [1, 8] | viability at 20 µM [1, 9] | viability at 20 µM [1, 10] | SI (MCF-7) [2] | inhibition of cell viability (HT-29) [1, 12] | inhibition of cell viability (HT-29) [1, 13] | LCK protein expression (Western blot quantification) [4] | pY394-LCK protein expression (Western blot quantification) [4] | pY505-LCK protein expression (Western blot quantification) [4] | LAT protein expression (Western blot quantification) [5] | pLAT protein expression (Western blot quantification) [5] | cancer cell viability (%), 2:1 HT-29/THP-1, 48 h ([1]; co-culture 2:1 HT-29/THP-1, 20 μM, 48 h) | IC50 ([2]; MCF7, read-out: IC50 (μM) MCF-7)
1 | Cc1c(COc2ccc(CN3CCCCC3C(=O)O)cc2Br)cccc1-c1ccccc1 (centres unmarked) [BMS-8, reference compound] | 20 ± 3 µM | 122 ± 13% | retained this epithelial nature, resulting in an increased and brighter cytosolic granulation | 102 ± 23% | 88 ± 3% | 102 ± 12% | 106 ± 10% | 101 ± 3% | 3 | – | – | – | – | – | – | – | – | –
2 | COc1ccc(COc2cccc(NC(=O)Oc3ccccc3)c2)cc1 [Compound 14] | – | 107 ± 18% | slight loss of cell-to-cell contact and the appearance of clustered cells with irregular surfaces | 82 ± 4% | 90 ± 6% | 97 ± 5% | 88 ± 9% | 85 ± 14% | >5 | – | – | 175 | 130 | 145 | 103 | 21 | – | 20 ± 9 µM

Second part, led by results:

Row | IC50 [2, 11] | Total VEGFR-2 (%) [3] | Structure (SMILES) | morphological changes of HT-29 cells ([1]; 20 μM) | viability at 20 µM [1, 6] | viability at 20 µM [1, 7] | viability at 20 µM [1, 8] | viability at 20 µM [1, 9] | viability at 20 µM [1, 10] | SI (MCF-7) [2] | inhibition of cell viability (HT-29) [1, 12] | inhibition of cell viability (HT-29) [1, 13] | LCK protein expression (Western blot quantification) [4] | pY394-LCK protein expression (Western blot quantification) [4] | pY505-LCK protein expression (Western blot quantification) [4] | LAT protein expression (Western blot quantification) [5] | pLAT protein expression (Western blot quantification) [5] | cancer cell viability (%), 2:1 HT-29/THP-1, 48 h ([1]; co-culture 2:1 HT-29/THP-1, 20 μM, 48 h) | IC50 ([2]; MCF7, read-out: IC50 (μM) MCF-7)
3 | 0.17 ± 0.03 µM | 97 ± 12% | COc1ccc(COc2cccc(NC(=O)Nc3ccc(F)cc3)c2)cc1 [Compound 2] | less confluent cultures with a few elongated fibroblast-like appearance cells | 89 ± 7% | 80 ± 4% | 102 ± 16% | 83 ± 5% | 95 ± 5% | >580 | 20% | 20% | 176 | 143 | 140 | 63 | – | – | –
4 | 1.3 ± 0.4 µM | 141 ± 13% | COc1ccc(COc2cccc(NC(=O)Nc3ccc(Br)cc3)c2)cc1 [Compound 8] | less confluent cultures with a few elongated fibroblast-like appearance cells | 86 ± 9% | 83 ± 13% | 106 ± 8% | 95 ± 16% | 92 ± 20% | >77 | – | – | – | – | – | 88 | 8 | – | –
5 | > 200 µM | 143 ±10% | COc1ccc(COc2cccc(NC(=O)Nc3ccc(OC)cc3)c2)cc1 [Compound 11] | less confluent cultures with a few elongated fibroblast-like appearance cells | 95 ± 21% | 86 ± 4% | 119 ± 14% | 88 ± 3% | 85 ± 11% | – | 20% | 20% | 168 | 184 | 157 | 85 | 10 | active | –
